This assay deals with GABA A receptor α1β2γ2S (Rattus norvegicus, UniProt P18508+P62813+P63138). The experiment in a line: two-microelectrode voltage clamp, Xenopus oocytes, potentiation of GABA current. In kind it is cell-based.

Consider 5 compounds from PMC3201904 (Phytochemistry, 2011).

Chain of GABA A receptor α1β2γ2S (P62813 28-455): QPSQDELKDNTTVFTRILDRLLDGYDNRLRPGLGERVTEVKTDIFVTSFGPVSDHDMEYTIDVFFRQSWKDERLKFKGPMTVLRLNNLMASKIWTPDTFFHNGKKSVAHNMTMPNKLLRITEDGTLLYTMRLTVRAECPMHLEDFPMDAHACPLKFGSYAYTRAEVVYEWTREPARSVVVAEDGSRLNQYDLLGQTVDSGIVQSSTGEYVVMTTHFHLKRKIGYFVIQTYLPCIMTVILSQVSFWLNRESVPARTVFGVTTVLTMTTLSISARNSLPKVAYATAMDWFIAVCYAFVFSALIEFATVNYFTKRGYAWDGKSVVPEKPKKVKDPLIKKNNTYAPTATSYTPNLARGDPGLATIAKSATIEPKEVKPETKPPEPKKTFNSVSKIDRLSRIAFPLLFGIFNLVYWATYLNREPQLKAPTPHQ
Chain of GABA A receptor α1β2γ2S (P63138 26-474): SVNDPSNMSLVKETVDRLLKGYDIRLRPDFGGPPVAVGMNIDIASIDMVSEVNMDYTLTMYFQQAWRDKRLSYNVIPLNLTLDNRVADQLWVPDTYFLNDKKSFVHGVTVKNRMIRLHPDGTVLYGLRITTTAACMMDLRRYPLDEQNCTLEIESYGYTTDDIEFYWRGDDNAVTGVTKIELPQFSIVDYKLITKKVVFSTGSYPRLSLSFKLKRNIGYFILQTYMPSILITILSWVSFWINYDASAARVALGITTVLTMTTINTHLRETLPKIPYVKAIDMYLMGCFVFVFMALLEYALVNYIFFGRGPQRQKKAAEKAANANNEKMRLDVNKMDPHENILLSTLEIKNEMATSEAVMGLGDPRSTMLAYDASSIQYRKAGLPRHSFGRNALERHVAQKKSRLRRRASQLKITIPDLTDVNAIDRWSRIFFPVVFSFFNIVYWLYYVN
Chain of GABA A receptor α1β2γ2S (P18508 39-466): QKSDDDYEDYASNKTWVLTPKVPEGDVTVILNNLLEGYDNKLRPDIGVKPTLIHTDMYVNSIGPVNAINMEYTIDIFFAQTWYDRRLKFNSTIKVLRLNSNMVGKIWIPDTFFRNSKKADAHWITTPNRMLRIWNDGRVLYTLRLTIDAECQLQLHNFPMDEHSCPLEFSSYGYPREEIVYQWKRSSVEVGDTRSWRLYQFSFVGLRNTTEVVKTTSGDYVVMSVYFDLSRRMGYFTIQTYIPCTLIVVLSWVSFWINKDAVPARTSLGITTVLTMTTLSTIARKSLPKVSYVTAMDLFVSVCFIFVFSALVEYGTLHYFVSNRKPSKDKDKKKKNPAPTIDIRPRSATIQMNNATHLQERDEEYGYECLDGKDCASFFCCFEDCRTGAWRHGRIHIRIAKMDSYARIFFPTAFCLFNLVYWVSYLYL

`COc1cc(C[C@@H](C)[C@@H](C)Cc2ccc(O)c(OC)c2)ccc1O` [compound 5, dihydroguaiaretic acid]: the EC50 (as a rule, the midpoint of the concentration-response curve) came out at 79.2 ± 19.4 µM. For `C=CC(=C)CC[C@@H](OC(=O)/C=C/c1ccccc1)C(C)(C)O` [compound 7, (+)-6-cinnamoyl-6,7-dihydro-7-myrceneol], the EC50 is 70.6 ± 12.2 µM. The same measure for `COc1cc(C[C@H](C)[C@H](C)Cc2ccc(OC)c(OC)c2)ccc1O` [compound 8, mono-methyl dihydroguaiaretic acid]: 54.6 ± 28.8 µM. As for `COc1cc(C[C@H](C)[C@H](C)Cc2ccc3c(c2)OCO3)ccc1O` [compound 11, anwulignan], the EC50 stood at 31.5 ± 7.1 µM. The same measure for `CC1(C)CCC[C@]1(C)C1=CC=C(C(=O)O)CC1` [compound 12, (−)-5,6-dihydrocuparenic acid]: 118 ± 29.9 µM.
